This experiment has as its system KASE rats. Description: Effect of angiogenesis inhibitor on spontaneous seizure development after kainic acid-induced status epilepticus (KASE). It is filed as in vivo, rat. Particulars: KASE rats (n=4); twice daily injections for fourteen consecutive days beginning one week following KASE; first three weeks of monitoring, daily 8-hour observation sessions; relative to untreated KASE or control rats. An excerpt:
We have administered HET0016, an inhibitor of angiogenesis, during the “latent period” that follows KASE and precedes the emergence of spontaneous seizures, to assess whether the development of spontaneous seizures could be impeded. Optimal doses for achieving antiangiogenesis have been established for some of these compounds in other pathological contexts and we have acquired some knowledge of the progression of angiogenesis following KASE using our temporal BrdU assay. On the basis of these observations, we administered a proven antiangiogenic compound at the optimal dosage established in other pathological contexts. This compound was administered to KASE rats (n=4) via twice daily injections for fourteen consecutive days, beginning one week following KASE. Four untreated KASE rats (n=4) received sham injections of diluent and were processed in parallel. Control rats (n=2) received neither KASE nor antiangiogenic therapy. The occurrence of spontaneous seizures in these cohorts was monitored during daily during 8-hour observation sessions beginning one week following KASE, and continues to the present.

From patent US20110160272A1, “METHODS AND COMPOSITIONS FOR USE OF ANGIOGENESIS INHIBITORS IN THE PREVENTION AND/OR CONTROL OF EPILEPSY” (priority 2004, published 2011) come the findings set out here.

On to `CCCCc1ccc(N=CNO)c(C)c1` [HET0016], for which the “development of spontaneous seizures (cumulative seizures, FIG. 7)” value is “impeded the development of spontaneous seizures”.
